Measured values reported in paper PMC4854315, “Discovery of a novel allosteric inhibitor-binding site in ERK5: comparison with the canonical kinase hinge ATP-binding site” (Acta Crystallographica. Section D, Structural Biology, 2016).

Key:
Experiment in all cases: Z'-LYTE kinase panel
Assay type in all cases: biochemical
[1] = target: T1, AURKB (Aurora B) (Homo sapiens, UniProt Q96GD4)
T1 construct: purchased ThermoFisher (SelectScreen, Z'-LYTE)
Method in brief: (§1)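 Z′-LYTE, standard conditions; 10 µM test compound; values = % inhibition; broad panel of 225 kinases.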

[2] = target: T2, MERTK (cMER) (Homo sapiens, UniProt Q12866)
T2 construct: purchased ThermoFisher (SelectScreen, Z'-LYTE)
T2 sequence (Q12866 21-999): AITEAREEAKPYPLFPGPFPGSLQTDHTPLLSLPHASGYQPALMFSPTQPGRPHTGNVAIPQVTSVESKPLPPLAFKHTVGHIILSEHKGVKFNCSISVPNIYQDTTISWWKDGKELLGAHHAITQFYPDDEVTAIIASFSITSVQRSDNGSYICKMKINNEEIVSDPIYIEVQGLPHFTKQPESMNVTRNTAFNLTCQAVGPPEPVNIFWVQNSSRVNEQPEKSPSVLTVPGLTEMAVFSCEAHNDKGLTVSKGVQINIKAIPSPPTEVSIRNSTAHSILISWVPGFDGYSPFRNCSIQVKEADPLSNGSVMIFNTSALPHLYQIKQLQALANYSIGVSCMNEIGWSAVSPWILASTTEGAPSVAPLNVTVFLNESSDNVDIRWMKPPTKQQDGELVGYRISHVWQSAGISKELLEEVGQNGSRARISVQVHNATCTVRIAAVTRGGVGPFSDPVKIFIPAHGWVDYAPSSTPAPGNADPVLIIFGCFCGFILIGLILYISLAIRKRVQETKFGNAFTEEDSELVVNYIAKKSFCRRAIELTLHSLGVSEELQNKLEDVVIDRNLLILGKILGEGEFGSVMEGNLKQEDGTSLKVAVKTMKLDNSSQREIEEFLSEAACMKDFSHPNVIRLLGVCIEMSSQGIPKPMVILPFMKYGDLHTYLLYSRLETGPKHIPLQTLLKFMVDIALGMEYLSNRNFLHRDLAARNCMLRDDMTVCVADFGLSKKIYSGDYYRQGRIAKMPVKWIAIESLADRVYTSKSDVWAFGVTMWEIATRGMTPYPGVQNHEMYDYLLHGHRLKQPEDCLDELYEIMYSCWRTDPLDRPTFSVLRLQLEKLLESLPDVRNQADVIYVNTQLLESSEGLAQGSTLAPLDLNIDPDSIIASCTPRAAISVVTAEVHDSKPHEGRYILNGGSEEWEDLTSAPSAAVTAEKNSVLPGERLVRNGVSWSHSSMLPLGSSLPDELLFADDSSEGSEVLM
Method in brief: as §1

[3] = target: T3, MAPK12 (p38 gamma) (Homo sapiens, UniProt P53778)
T3 construct: purchased ThermoFisher (SelectScreen, Z'-LYTE)
T3 sequence (P53778 1-367): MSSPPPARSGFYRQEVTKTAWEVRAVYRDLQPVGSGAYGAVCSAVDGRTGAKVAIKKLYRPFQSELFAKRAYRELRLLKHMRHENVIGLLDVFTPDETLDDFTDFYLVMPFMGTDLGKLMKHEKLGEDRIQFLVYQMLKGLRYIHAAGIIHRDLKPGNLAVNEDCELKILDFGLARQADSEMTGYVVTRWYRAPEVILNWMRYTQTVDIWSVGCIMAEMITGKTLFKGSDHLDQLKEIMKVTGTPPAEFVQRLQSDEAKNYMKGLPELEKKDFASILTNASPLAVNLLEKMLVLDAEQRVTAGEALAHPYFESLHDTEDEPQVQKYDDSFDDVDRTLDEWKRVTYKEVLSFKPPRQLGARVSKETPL
Method in brief: as §1

[4] = target: T4, PRKD2 (PKD2) (Homo sapiens, UniProt Q9BZL6)
T4 construct: purchased ThermoFisher (SelectScreen, Z'-LYTE)
T4 sequence (Q9BZL6 1-878): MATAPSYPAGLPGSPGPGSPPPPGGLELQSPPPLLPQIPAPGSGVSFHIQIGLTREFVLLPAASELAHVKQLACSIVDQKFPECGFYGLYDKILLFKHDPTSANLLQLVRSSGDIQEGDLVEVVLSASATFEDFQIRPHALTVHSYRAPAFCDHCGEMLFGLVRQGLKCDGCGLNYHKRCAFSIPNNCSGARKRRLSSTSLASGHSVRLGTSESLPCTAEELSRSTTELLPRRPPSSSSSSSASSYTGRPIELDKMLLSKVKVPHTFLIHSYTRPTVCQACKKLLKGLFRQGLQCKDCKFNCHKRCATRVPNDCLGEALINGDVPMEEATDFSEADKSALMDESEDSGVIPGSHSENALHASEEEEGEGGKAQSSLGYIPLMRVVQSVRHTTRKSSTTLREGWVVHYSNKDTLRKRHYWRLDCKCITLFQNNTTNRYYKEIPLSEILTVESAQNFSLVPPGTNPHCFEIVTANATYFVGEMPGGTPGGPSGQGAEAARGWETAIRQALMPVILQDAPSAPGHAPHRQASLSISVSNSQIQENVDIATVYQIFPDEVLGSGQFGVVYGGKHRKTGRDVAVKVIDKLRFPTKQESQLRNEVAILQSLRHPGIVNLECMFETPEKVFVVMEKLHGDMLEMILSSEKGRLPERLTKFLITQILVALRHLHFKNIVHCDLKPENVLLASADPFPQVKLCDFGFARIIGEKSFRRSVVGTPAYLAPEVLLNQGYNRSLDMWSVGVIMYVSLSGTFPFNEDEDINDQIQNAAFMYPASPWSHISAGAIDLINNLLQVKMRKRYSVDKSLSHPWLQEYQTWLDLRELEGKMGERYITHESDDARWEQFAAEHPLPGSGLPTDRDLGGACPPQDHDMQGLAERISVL
Method in brief: as §1

[5] = target: T5, ROCK1 (Homo sapiens, UniProt Q13464)
T5 construct: purchased ThermoFisher (SelectScreen, Z'-LYTE)
Method in brief: as §1

[6] = target: T6, PRKACA (PKA) (Homo sapiens, UniProt P17612)
T6 construct: purchased ThermoFisher (SelectScreen, Z'-LYTE)
Method in brief: as §1

[7] = target: T7, NEK4 (Homo sapiens, UniProt P51957)
T7 construct: purchased ThermoFisher (SelectScreen, Z'-LYTE)
T7 sequence (P51957 whole entry): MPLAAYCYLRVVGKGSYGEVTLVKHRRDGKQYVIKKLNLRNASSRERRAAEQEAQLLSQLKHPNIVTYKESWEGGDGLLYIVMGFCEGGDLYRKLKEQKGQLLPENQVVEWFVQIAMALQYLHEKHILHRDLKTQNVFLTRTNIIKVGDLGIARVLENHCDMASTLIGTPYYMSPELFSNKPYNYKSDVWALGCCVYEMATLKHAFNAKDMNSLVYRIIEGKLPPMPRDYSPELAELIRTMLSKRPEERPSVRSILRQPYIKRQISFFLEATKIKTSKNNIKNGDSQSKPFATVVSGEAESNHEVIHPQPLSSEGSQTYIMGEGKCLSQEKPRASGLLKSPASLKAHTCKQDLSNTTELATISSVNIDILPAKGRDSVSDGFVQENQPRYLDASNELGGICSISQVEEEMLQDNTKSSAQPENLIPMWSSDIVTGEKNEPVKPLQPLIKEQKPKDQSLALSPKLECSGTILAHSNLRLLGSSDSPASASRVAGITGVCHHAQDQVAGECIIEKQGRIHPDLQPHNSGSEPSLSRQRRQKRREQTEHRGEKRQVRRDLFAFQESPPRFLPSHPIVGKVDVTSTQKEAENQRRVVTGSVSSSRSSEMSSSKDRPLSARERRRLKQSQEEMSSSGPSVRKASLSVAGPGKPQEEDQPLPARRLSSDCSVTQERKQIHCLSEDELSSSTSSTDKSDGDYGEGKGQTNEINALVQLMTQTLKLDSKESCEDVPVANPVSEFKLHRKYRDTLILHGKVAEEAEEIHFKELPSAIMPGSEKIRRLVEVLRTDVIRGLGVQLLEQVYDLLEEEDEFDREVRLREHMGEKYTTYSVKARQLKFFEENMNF
Method in brief: as §1

[8] = target: T8, FLT1 (VEGFR1) (Homo sapiens, UniProt P17948)
T8 construct: purchased ThermoFisher (SelectScreen, Z'-LYTE)
T8 sequence (P17948 27-1338): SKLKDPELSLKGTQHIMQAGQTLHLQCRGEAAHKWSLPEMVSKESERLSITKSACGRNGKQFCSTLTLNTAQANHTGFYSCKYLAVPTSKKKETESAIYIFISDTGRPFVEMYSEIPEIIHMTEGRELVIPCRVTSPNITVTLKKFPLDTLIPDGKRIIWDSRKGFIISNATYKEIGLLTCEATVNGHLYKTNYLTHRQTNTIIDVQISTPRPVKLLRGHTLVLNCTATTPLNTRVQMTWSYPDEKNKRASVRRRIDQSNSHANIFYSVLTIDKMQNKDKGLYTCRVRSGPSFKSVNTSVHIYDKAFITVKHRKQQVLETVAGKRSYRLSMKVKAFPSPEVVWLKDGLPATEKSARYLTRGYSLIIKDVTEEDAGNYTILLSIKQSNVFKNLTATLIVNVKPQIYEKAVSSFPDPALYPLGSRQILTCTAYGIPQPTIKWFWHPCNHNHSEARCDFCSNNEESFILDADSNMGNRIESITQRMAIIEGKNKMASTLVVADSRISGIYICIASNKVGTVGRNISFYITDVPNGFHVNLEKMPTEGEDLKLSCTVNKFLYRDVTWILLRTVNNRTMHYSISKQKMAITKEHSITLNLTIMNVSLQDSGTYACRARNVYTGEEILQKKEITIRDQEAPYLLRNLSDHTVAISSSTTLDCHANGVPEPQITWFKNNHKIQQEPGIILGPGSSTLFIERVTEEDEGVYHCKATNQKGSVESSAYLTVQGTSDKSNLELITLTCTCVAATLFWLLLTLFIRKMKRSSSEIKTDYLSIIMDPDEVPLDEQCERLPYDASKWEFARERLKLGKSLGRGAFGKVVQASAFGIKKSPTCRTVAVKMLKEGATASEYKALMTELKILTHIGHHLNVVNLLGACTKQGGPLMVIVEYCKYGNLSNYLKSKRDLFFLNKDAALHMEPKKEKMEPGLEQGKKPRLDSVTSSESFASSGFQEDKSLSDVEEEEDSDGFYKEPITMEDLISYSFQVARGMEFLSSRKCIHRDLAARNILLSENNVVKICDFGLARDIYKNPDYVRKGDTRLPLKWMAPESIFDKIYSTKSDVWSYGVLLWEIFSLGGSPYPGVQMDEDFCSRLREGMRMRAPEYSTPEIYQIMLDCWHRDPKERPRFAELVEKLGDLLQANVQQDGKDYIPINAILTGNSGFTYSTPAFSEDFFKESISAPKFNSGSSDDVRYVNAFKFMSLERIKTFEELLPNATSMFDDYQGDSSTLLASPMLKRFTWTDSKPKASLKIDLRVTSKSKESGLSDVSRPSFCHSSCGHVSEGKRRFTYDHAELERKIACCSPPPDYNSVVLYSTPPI
Method in brief: as §1

[9] = target: T9, JAK1 (Homo sapiens, UniProt P23458)
T9 construct: purchased ThermoFisher (SelectScreen, Z'-LYTE)
Method in brief: as §1

[10] = target: T10, FGFR4 (Homo sapiens, UniProt P22455)
T10 construct: purchased ThermoFisher (SelectScreen, Z'-LYTE)
T10 sequence (P22455 22-802): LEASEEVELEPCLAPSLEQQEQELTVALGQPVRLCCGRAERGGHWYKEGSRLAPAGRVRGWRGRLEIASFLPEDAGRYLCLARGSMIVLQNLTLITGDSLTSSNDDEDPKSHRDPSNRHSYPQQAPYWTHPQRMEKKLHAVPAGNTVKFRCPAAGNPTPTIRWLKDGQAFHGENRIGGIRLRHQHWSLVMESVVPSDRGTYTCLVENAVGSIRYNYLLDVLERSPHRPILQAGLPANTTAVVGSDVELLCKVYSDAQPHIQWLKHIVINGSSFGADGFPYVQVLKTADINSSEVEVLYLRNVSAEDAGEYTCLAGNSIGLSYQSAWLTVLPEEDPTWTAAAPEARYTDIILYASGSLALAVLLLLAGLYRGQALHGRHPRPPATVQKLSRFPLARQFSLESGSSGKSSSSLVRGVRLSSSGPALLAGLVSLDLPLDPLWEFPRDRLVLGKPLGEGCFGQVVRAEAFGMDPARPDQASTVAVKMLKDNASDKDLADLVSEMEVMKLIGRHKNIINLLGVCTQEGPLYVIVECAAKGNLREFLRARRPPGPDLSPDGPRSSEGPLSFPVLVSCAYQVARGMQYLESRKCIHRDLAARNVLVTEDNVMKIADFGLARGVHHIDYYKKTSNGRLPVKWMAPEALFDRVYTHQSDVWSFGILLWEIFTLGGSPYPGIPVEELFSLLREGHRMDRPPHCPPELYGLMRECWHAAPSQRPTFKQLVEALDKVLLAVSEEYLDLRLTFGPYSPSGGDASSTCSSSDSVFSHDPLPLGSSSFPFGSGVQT
Method in brief: as §1

[11] = target: T11, PRKCQ (PKC theta) (Homo sapiens, UniProt Q04759)
T11 construct: purchased ThermoFisher (SelectScreen, Z'-LYTE)
T11 sequence (Q04759 whole entry): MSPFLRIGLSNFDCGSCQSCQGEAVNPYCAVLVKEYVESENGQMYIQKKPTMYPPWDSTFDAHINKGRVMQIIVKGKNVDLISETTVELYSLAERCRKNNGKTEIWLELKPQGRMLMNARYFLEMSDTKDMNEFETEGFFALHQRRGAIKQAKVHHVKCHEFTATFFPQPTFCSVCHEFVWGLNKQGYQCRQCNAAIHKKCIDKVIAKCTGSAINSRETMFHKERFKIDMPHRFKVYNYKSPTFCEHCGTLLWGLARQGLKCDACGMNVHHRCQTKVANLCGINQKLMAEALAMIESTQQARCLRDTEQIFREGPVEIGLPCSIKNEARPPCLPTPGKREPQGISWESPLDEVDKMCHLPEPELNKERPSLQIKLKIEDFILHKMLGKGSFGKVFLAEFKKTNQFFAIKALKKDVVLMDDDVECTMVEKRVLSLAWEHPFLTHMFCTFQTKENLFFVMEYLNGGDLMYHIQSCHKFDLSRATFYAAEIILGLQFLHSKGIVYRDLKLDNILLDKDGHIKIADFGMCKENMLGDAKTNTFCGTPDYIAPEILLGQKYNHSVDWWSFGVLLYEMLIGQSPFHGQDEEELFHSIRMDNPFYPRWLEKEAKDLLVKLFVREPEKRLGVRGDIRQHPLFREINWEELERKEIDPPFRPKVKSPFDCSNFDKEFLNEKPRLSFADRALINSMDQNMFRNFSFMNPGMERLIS
Method in brief: as §1

[12] = target: T12, MAPK3 (ERK1) (Homo sapiens, UniProt P27361)
T12 construct: purchased ThermoFisher (SelectScreen, Z'-LYTE)
T12 sequence (P27361 whole entry): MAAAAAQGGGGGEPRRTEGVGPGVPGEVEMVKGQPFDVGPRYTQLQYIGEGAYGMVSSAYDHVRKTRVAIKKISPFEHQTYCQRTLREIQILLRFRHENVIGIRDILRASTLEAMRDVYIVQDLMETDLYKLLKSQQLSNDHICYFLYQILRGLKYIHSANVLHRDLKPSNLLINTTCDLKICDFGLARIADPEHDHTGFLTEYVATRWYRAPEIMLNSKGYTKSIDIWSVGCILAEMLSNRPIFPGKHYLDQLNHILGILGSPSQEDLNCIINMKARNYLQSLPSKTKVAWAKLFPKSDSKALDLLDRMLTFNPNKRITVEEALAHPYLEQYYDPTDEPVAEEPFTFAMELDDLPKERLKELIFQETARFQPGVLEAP
Method in brief: as §1

[13] = target: T13, DAPK3 (ZIPK) (Homo sapiens, UniProt O43293)
T13 construct: purchased ThermoFisher (SelectScreen, Z'-LYTE)
T13 sequence (O43293 whole entry): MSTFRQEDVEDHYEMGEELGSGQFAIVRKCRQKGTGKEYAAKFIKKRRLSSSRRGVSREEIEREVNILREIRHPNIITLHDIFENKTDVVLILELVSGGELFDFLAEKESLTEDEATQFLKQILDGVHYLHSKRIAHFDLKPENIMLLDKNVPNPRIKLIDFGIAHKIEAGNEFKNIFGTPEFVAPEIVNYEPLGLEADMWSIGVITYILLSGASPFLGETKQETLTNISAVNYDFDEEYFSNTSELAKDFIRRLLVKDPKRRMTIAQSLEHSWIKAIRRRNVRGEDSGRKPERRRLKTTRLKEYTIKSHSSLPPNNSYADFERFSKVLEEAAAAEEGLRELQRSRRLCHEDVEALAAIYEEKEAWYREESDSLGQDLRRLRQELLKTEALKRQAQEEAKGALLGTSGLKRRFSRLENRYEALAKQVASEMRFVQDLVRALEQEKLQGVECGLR
Method in brief: as §1

T1 sequence (Q96GD4 whole entry): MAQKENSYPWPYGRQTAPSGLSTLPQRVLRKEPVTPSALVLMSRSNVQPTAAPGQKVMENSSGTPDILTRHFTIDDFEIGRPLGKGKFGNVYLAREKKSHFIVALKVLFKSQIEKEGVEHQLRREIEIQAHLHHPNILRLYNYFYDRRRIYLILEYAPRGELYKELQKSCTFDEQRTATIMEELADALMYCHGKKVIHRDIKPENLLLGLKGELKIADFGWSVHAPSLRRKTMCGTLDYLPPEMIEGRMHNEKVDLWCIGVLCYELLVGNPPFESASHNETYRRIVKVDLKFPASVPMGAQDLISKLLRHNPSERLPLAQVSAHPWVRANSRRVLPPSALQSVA

Molecule	inhibition at 10 µM [1] [%]	inhibition at 10 µM [2] [%]	inhibition at 10 µM [3] [%]	inhibition at 10 µM [4] [%]	inhibition at 10 µM [5] [%]	inhibition at 10 µM [6] [%]	inhibition at 10 µM [7] [%]	inhibition at 10 µM [8] [%]	inhibition at 10 µM [9] [%]	inhibition at 10 µM [10] [%]	inhibition at 10 µM [11] [%]	inhibition at 10 µM [12] [%]	inhibition at 10 µM [13] [%]	further results
XMD8-92 [Compound 2, reference compound]	–	–	–	–	–	–	–	–	–	–	–	–	–	AURKB (Aurora B) % Inhibition ([1]; 10 µM compound, ATP Km app): 39%; MERTK (cMER) % Inhibition ([2]; 10 µM compound, ATP Km app): 0.252%; MAPK12 (p38 gamma) % Inhibition ([3]; 10 µM compound, ATP Km app): 3.54%; PRKD2 (PKD2) % Inhibition ([4]; 10 µM compound, ATP Km app): 21%; ROCK1 % Inhibition ([5]; 10 µM compound, ATP Km app): 16%; PRKACA (PKA) % Inhibition ([6]; 10 µM compound, ATP Km app): 56%; NEK4 % Inhibition ([7]; 10 µM compound, ATP Km app): 2.63%; FLT1 (VEGFR1) % Inhibition ([8]; 10 µM compound, ATP Km app): -1.58%; JAK1 % Inhibition ([9]; 10 µM compound, ATP Km app): 32%; FGFR4 % Inhibition ([10]; 10 µM compound, ATP Km app): 19%; PRKCQ (PKC theta) % Inhibition ([11]; 10 µM compound, ATP Km app): 52%; MAPK3 (ERK1) % Inhibition ([12]; 10 µM compound, ATP Km app): 8%; DAPK3 (ZIPK) % Inhibition ([13]; 10 µM compound, ATP Km app): -0.894%
Cc1ncc(-c2nc(Nc3ccc(C(=O)NCCN4CCCCC4)cc3)ncc2F)n1C(C)C [Compound 3]	88	99	46	95	27	74	23	73	101	19	80	40	78	–
Cc1cc(Nc2nc(N)nn2C(=O)NC(C)C)ccc1Cl [Compound 5]	68	43	1.08	9	37	1.5	17	34	60	10	-8	7	-7.41	–
